Where a chain is given by its changes, count along the chain named. In names and notes the source's numbering stands. Several values for one entry are separate records, joined by “and”; a condition that tells them apart may be missing. Identical values can stand only once.
Experiments:
human HSD17B11 = target: T1, human HSD17B11 (Homo sapiens, UniProt Q8NBQ5); assay: Thermal shift assay (static light scattering, Tagg), human HSD17B11; type: binding; conditions: Fig. 6d, 500 μM NAD+
T1 construct: human HSD17B11 (residues 2-300, NP_057329.3); 10x His (N); TEV protease site (N); made in house; host or cells: Sf9 (baculovirus)
T1 sequence (Q8NBQ5 2-300): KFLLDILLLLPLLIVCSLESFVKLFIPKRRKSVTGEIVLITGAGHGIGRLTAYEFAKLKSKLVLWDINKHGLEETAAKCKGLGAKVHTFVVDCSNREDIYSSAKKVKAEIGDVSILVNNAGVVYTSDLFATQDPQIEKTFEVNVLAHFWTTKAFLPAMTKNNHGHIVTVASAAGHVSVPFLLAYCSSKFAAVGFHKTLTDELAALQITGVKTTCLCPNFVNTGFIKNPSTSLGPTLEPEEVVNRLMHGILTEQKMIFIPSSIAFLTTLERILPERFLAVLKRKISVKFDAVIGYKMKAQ
Excerpt: Because of the low enzymatic activities of dog wild-type HSD17B13 (Fig. 6a) and HSD17B11 with β-estradiol, it was difficult to measure compound inhibition of these proteins in a biochemical assay and we instead utilized direct binding methods to compare compounds interaction with different proteins. To understand ligand binding, we tested several approaches such as surface plasmon resonance and isothermal calorimetry. Like many membrane/detergent-associated proteins, however, these methods were not amenable for HSD17B13. We next turned to thermal shift assays (TSA) for comparing ligand binding affinities. TSA measures the changes in the thermal denaturation temperature of a protein under different conditions such as the presence compound, changes in buffer conditions, or sequence mutations. There are various readouts including intrinsic fluorescence or light scattering signals. We chose the static light scattering methods to detect the temperatures at which our proteins start to aggregate (Tagg), which are more suitable for membrane proteins that require detergent micelles for stability. Given that in theory[51] and in practice Tagg continues to increase with concentration of ligands far above their IC50s, we used high cofactor and inhibitor concentrations in the TSA experiments to maximize the ligand binding signal.
(§1) TSA studies were run on the UNit instrument (Unchained Labs, CA, USA). Experiments were run in either 25 mM sodium phosphate pH 7, 150 mM NaCl, 10% glycerol, 1 mM TCEP, 0.05% DDM, + different cofactors (NAD^+, NADH, NADP, NADPH; MilliporeSigma) or 25 mM HEPES pH 7.2, 300 mM NaCl, 0.5 mM TCEP, 0.05% DDM, 10% glycerol, ±500 µM NAD^+, and ±100 µM compound 1 (from 2 mM DMSO stock) or DMSO or 50 mM Hepes pH 7.5, 300 mM NaCl, 0.5 mM TCEP, 0.05% DDM, 500 µM NAD^+, ± 50 µM compounds (from 2 mM stock) or DMSO. Protein aggregation was measured by static light scattering at 266 and 473 nm with a 1 °C/sec ramp rate from 20-80 °C. The data was processed using the UNcle software (Unchained Labs, CA, USA), and temperatures at which the protein started aggregation were recorded as Tagg. Reported Tagg and analysis were based on measurements at 266 nm unless otherwise indicated. The protein concentration used was 10.4 μM.

human HSD17B13 = target: T2, human HSD17B13 (Homo sapiens, UniProt Q7Z5P4); assay: Thermal shift assay (static light scattering, Tagg), human HSD17B13; type: binding; conditions: Fig. 6c; 500 μM NAD+ alone, no compound
T2 construct: human HSD17B13 (residues 2-300, NP_835236.2); 10x His (N); TEV protease site (N); made in house; host or cells: Sf9 (baculovirus)
T2 sequence (Q7Z5P4 2-300): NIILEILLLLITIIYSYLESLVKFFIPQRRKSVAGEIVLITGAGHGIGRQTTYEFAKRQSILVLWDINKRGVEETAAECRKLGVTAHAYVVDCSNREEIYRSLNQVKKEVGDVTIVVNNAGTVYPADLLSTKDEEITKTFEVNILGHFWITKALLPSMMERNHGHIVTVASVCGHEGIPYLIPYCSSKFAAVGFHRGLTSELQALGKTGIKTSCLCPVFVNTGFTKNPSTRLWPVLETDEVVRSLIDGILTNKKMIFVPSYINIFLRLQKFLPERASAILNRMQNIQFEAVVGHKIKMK
Excerpt: To understand ligand binding, we tested several approaches such as surface plasmon resonance and isothermal calorimetry. […] We next turned to thermal shift assays (TSA) for comparing ligand binding affinities. TSA measures the changes in the thermal denaturation temperature of a protein under different conditions such as the presence compound, changes in buffer conditions, or sequence mutations. There are various readouts including intrinsic fluorescence or light scattering signals. We chose the static light scattering methods to detect the temperatures at which our proteins start to aggregate (Tagg), which are more suitable for membrane proteins that require detergent micelles for stability.
as §1, with “indicated.” for “indicated. The protein concentration used was 10.4 μM.”

[1] = target: human mutant HSD17B13 (Q60K/I62R/R71H/E161K) (human) (UniProt Q7Z5P4); assay: crystal structure; human mutant HSD17B13 with 1 mM NAD+, 1 mM compound 2 and 0.5% β-octyl-glucoside; 25% PEG3350, 0.1 M Bis-Tris pH 5.5, 0.2 M Li2SO4; room temperature
[2] = target: the molecule itself; assay: crystal structure; dog HSD17B13 at 12 mg/ml with 1 mM NAD+, 1 mM compound 1 and 0.125% β-octyl-glucoside; 30% PEG3350, 0.2 M ammonium chloride; room temperature; apo crystals by soaking with buffer containing NAD+ only

Cc1ccc(S(=O)(=O)c2cc(C)cc(S(=O)(=O)Nc3ccc(C(=O)O)cc3)c2C)cc1 [Compound 2]
effect on protein stability in TSA (human HSD17B11): neither 1 nor 2 showed an effect on protein stability
Tagg (human HSD17B11; 50 µM compound): 40.37 °C and 38.02 °C and 40.65 °C and 41.03 °C and 39.22 °C and 40.82 °C and 39.77 °C and 38.1 °C

NC(=O)c1ccc[n+]([C@@H]2O[C@H](COP(=O)([O-])OP(=O)(O)OC[C@H]3O[C@@H](n4cnc5c(N)ncnc54)[C@H](O)[C@@H]3O)[C@@H](O)[C@H]2O)c1 [NAD, nicotinamide adenine dinucleotide]
Tagg, individual measurements (human HSD17B13): 43.6 °C (2×) and 38.9 °C and 40.5 °C and 42 °C and 41.7 °C (2×) and 41 °C

human mutant HSD17B13 (Q60K/I62R/R71H/E161K) (from UniProt Q7Z5P4-1 20-300) (enzyme)
stoichiometry N [1]: 2

B1: dog wild-type HSD17B13 (hydroxysteroid 17-beta-dehydrogenase 13) (enzyme, UniProt A0A8C0PP93 1-300, looked up)
chain: MNIILDLLLLLLTIIYSYLEALVKVFFPRKRKSVAGEIVLITGAGHGIGRWTAYEFAKQKSRLVLWDINKHGVEETAAECRKLGATVHTFVVDCGNREDIYNSVKQVKKEVGDVTILVNNAGTVYPADLLSTKDEEITKTFEINILGHFWITKALLPSMIKRNHGHIVTVASVCGHGVIPYLIPYCSSKFAAVGFHRALTLELQTLGITGIKTSCLCPVFVNTGFTKNPSTRLWPILETDTVARSLIDGILTNKKMIFVPSYYNIYLILDKFLPERALAAINHLQNIQFEAVIGHKTRMK
notes: HSD17B13, dog, AA1-300 of XP_038300006.1; Crystallised with NAD+ and compound 1; the apo (NAD+ only) crystals were made by soaking compound 1 out; It is held in two of the entries PDB 8G84, 8G89, 8G93 and 8G9V; also called Dog WT; dog WT HSD17B13; source: Sf9 (baculovirus), solubilised from membranes with C12E8, purified (NiNTA, SEC)
stoichiometry N [2]: 2

B2: dog mutant HSD17B13 (G177E/V178G/T205A/I293V) (enzyme, UniProt A0A8C0PP93 1-300, looked up)
chain: B1 chain with G177E, V178G, T205A, I293V
notes: HSD17B13, dog, AA1-300 of XP_038300006.1, with four residues at the compound 1 site changed to the human ones; It is held in one of the entries PDB 8G84, 8G89, 8G93 and 8G9V; also called dog quadruple mutant; mutated dog HSD17B13; source: Sf9 (baculovirus), solubilised from membranes with C12E8, purified (NiNTA, SEC)
stoichiometry N [2]: 2

Reference: paper PMC10449848, “Structural basis of lipid-droplet localization of 17-beta-hydroxysteroid dehydrogenase 13” (Nature Communications, 2023)
